Each structure is given as a SMILES string.

For orientation: IC50 means the concentration that inhibits the measured activity by half. High values mean a need for much substance, low ones inhibition by little substance.

The first test addresses T1, MRGPRX2 (Homo sapiens, UniProt Q96LB1).
T1 sequence (Q96LB1 1-330): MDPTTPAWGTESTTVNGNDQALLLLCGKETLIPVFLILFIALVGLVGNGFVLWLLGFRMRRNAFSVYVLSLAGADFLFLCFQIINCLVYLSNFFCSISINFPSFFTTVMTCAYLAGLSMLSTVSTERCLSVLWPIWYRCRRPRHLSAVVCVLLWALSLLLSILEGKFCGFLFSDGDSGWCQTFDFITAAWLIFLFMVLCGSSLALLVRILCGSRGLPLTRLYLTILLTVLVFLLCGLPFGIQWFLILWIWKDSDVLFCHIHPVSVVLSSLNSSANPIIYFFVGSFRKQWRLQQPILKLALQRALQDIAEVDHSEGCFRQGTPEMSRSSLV
The test can be described thus: MRGPRX2 β-Arrestin recruitment assay (PathHunter). The class given is cell-based. Details: host or cells: CHO-K1 (PathHunter). As to conditions: PathHunter CHO-K1 MRGPRX2 β-Arrestin cell line; agonist Cortistatin 14 0.25 μM. The text has this:
Example C: MRGPRX2 P-Arrestin Assay
This assay measures compound inhibition of P-Arrestin recruitment, which is part of the G protein-independent pathway that results from the ligand-activated GPCR phosphorylation by specific GPCR kinases. The PathHunter CHO-K1 MRPGRX2 B-Arrestin Cell line stably expressing ProLink tagged MRGPRX2 and Enzyme Acceptor Tagged B-Arrestin was purchased from Eurofins DiscoverX, (Fremont, CA).
The cells were maintained in culture medium from the Europhins DiscoverX Cell Culture Kit-107 which includes FBS, hygromycin B and G418. For the assay, the cells were harvested and were resuspended with Cell Plating Reagent 2 (Eurofins DiscoverX). Cells were added 10000 cells in 25 μL/well to a 384-well black cell culture plate (Greiner VWR, Radnor, PA) which contained 125 nL/well of compound at a selected serially diluted concentration range or DMSO. The plate was incubated at 37° C. with 5% CO2 for 1 h. 2 μL/well of agonist Cortistatin 14 was diluted in Protein Dilution Buffer, (Eurofins DiscoverX) for a final concentration of 0.25 μM, was added and the plate was incubated at 37° C. with 5% CO2 for 90 min. 14 μL/well of Detection Reagent Mix (PathHunter Detection Kit, Eurofins DiscoverX) was added to the plates and further incubated for 1 h in the dark. Plates were read on the PHERAstar microplate reader (BMG Labtech Cary, NC) measuring luminescence 0.1 to 1 second per well. Data was normalized using DMSO only wells and wells with high concentration of reference antagonist as controls. Compound IC50 curves were globally fitted with 3- or 4-parameter Hill equation in a Genedata Screener (Genedata Basel, Switzerland).
(In general: Recruitment of arrestin is a read-out of receptor activation apart from second messengers.)
`CC(C)(O)CNC1CC(CNc2cc(C(F)(F)F)nc3cc(C(F)(F)F)nn23)(c2ccc(F)cc2)C1` (centres unmarked) [Example 73, 1-((3-(((2,5-Bis(trifluoromethyl)pyrazolo[1,5-a]pyrimidin-7-yl)amino)methyl)-3-(4-fluorophenyl)cyclobutyl)amino)-2-methylpropan-2-ol] had an IC50 of 0.1 to 100 nM.
The compound `O=C(N[C@H]1CC[C@H](O)CC1)N1CC(CNc2cc(C3CC3)nc3cc(C(F)(F)F)nn23)(c2ccc(F)cc2)C1` [Example 69, 3-(((5-Cyclopropyl-2-(trifluoromethyl)pyrazolo[1,5-a]pyrimidin-7-yl)amino)methyl)-3-(4-fluorophenyl)-N-((1r,4r)-4-hydroxycyclohexyl)azetidine-1-carboxamide] returned an IC50 of 0.1 to 100 nM.
Turning to `O=C(N[C@@H]1CC[C@@H](O)C1)N1CC(CNc2cc(C(F)(F)F)nc3cc(C(F)(F)F)nn23)(c2ccc(F)cc2)C1` [Example 53, 3-(((2,5-Bis(trifluoromethyl)pyrazolo[1,5-a]pyrimidin-7-yl)amino)methyl)-3-(4-fluorophenyl)-N-((1R,3R)-3-hydroxycyclopentyl)azetidine-1-carboxamide], the concentration for half-maximal inhibition (IC50) lay within 0.1 to 100 nM.
With `OCC1CC1(CNc1cc(C(F)(F)F)nc2cc(Br)nn12)c1ccccc1` (single isomer, unassigned) [Example 89, (2-(((2-Bromo-5-(trifluoromethyl)pyrazolo[1,5-a]pyrimidin-7-yl)amino)methyl)-2-phenylcyclopropyl)methanol], the concentration for half-maximal inhibition (IC50) lay within 100 to 1000 nM.
`OC1CC(CNc2cc(C(F)(F)F)nc3nc(C(F)(F)F)cn23)(c2ccc(F)cc2)C1` (centres unmarked) [Example 80, 3-(((2,7-Bis(trifluoromethyl)imidazo[1,2-a]pyrimidin-5-yl)amino)methyl)-3-(4-fluorophenyl)cyclobutan-1-ol]: the IC50 was in the range of 0.1 to 100 nM.
Same read-out and setting: the result for `OC1CCC(CNc2cc(C(F)(F)F)nc3cc(Br)nn23)(c2ccncc2)C1` (racemic) [Example 86, 3-(((2-Bromo-5-(trifluoromethyl)pyrazolo[1,5-a]pyrimidin-7-yl)amino)methyl)-3-(pyridin-4-yl)cyclopentan-1-ol] reads 0.1 to 100 nM.
`Cc1ccc(C2(CNc3cc(C(F)(F)F)nc4cc(C(F)(F)F)nn34)CN(S(N)(=O)=O)C2)cn1` [Example 97, 3-(((2,5-Bis(trifluoromethyl)pyrazolo[1,5-a]pyrimidin-7-yl)amino)methyl)-3-(6-methylpyridin-3-yl)azetidine-1-sulfonamide] came in with an IC50 of 100 to 1000 nM.
Compound `NC(=O)C1(N)CC(CNc2cc(C(F)(F)F)nc3cc(C(F)(F)F)nn23)(c2ccc(F)cc2)C1` (centres unmarked) [Example 76, 1-Amino-3-(((2,5-bis(trifluoromethyl)pyrazolo[1,5-a]pyrimidin-7-yl)amino)methyl)-3-(4-fluorophenyl)cyclobutane-1-carboxamide] returned an IC50 of 0.1 to 100 nM.
For `[2H]C([2H])([2H])NC(=O)N1CC(CNc2cc(C3CCC3)nc3cc(C(F)(F)F)nn23)(c2ccc(F)cc2)C1` [Example 108, 3-(((5-Cyclobutyl-2-(trifluoromethyl)pyrazolo[1,5-a]pyrimidin-7-yl)amino)methyl)-3-(4-fluorophenyl)-N-(methyl-d3)azetidine-1-carboxamide], the IC50 was 100 to 1000 nM.
As to `CO[C@H]1C[C@](CNc2cc(C(F)(F)F)nc3cc(C(F)(F)F)nn23)(c2ccccc2)C1` [Example 75, N-(((1s,3s)-3-Methoxy-1-phenylcyclobutyl)methyl)-2,5-bis(trifluoromethyl)pyrazolo[1,5-a]pyrimidin-7-amine], the 50% inhibitory concentration (IC50) fell in the range of 0.1 to 100 nM.
The same measure, in the same setting: the result for `CCc1cc(NCC2(c3ccc(F)cc3)CCC(N)(C#N)CC2)n2nc(C(F)(F)F)cc2n1` (centres unmarked) [Example 72, 1-Amino-4-(((5-ethyl-2-(trifluoromethyl)pyrazolo[1,5-a]pyrimidin-7-yl)amino)methyl)-4-(4-fluorophenyl)cyclohexane-1-carbonitrile] reads 0.1 to 100 nM.
In turn, `[2H]C([2H])([2H])NC(=O)N1CC(CNc2cc(C3CC3)nc3cc(C(F)(F)F)nn23)(c2ccc(C(=O)N(C)C)cc2)C1` [Example 107, 3-(((5-Cyclopropyl-2-(trifluoromethyl)pyrazolo[1,5-a]pyrimidin-7-yl)amino)methyl)-3-(4-(dimethylcarbamoyl)phenyl)-N-(methyl-d3)azetidine-1-carboxamide] returned an IC50 above 1000 nM.
Consider `N#CC12CC(NC(=O)N3CC(CNc4cc(C(F)(F)F)nc5cc(C(F)(F)F)nn45)(c4ccc(F)cn4)C3)(C1)C2` [Example 64, 3-(((2,5-Bis(trifluoromethyl)pyrazolo[1,5-a]pyrimidin-7-yl)amino)methyl)-N-(3-cyanobicyclo[1.1.1]pentan-1-yl)-3-(5-fluoropyridin-2-yl)azetidine-1-carboxamide], for which the half-maximal inhibitory concentration (IC50) lay within 0.1 to 100 nM.
In turn, `NC(=O)N1CC(CNc2cc(Cl)cc3nc(C(F)(F)F)nn23)(c2ccccc2)C1` [Example 79, 3-(((7-Chloro-2-(trifluoromethyl)-[1,2,4]triazolo[1,5-a]pyridin-5-yl)amino)methyl)-3-phenylazetidine-1-carboxamide] gave an IC50 of 0.1 to 100 nM.
Still for that read-out and setting: the result for `[2H]C([2H])([2H])c1cc(NCC2(c3ccc(F)cc3)CN(C(N)=O)C2)n2nc(C(F)(F)F)cc2n1` [Example 70, 3-(4-Fluorophenyl)-3-(((5-(methyl-d3)-2-(trifluoromethyl)pyrazolo[1,5-a]pyrimidin-7-yl)amino)methyl)azetidine-1-carboxamide] reads 0.1 to 100 nM; that for `OCC1CC1(CNc1cc(C(F)(F)F)nc2cc(Br)nn12)c1ccccn1` (single isomer, unassigned) [Example 88, (2-(((2-Bromo-5-(trifluoromethyl)pyrazolo[1,5-a]pyrimidin-7-yl)amino)methyl)-2-(pyridin-2-yl)cyclopropyl)methanol], above 1000 nM.
For the compound `O=c1cc(N2CC(CNc3cc(C(F)(F)F)nc4cc(C(F)(F)F)nn34)(c3ccc(F)cc3)C2)ccn1C1CC1` [Example 51, 4-(3-(((2,5-Bis(trifluoromethyl)pyrazolo[1,5-a]pyrimidin-7-yl)amino)methyl)-3-(4-fluorophenyl)azetidin-1-yl)-1-cyclopropylpyridin-2(1H)-one], the IC50 lay in the range of 0.1 to 100 nM.
`CNC1CCC(CNc2cc(C(F)(F)F)nc3cc(Br)nn23)(c2cccnc2)C1` (centres unmarked) [Example 87, 2-Bromo-N-((3-(methylamino)-1-(pyridin-3-yl)cyclopentyl)methyl)-5-(trifluoromethyl)pyrazolo[1,5-a]pyrimidin-7-amine] had an IC50 of 0.1 to 100 nM.

The target of a further test is T1, MRGPRX2. Description: MRGPRX2 IP1 HTRF assay. The class given is cell-based. Details: host or cells: CHO-K1. Particulars: CHO-K1 cells stably expressing human MRGPRX2; IP1 accumulation; agonist Cortistatin 14 1 μM. The text has this: Example B: MRGPRX2 IP1 HTRF Assay
This assay measures compound inhibition of myo-Inositol 1 phosphate (IP1) accumulation in CHO-K1 cells. Chinese hamster ovary (CHO-K1) cells stably expressing human MRGPRX2 were purchased from GenScript (Piscataway, NJ).
For the HTRF IP1 determination, an IP-One GqKit (Perkin Elmer Cisbio, Waltham, MA), which includes all reagents and buffers in this protocol, was used. The cells were maintained in culture medium (Ham's F-12K) containing 10% (v/v) FBS, and 200 μg/mL Zeocin. For the assay, the cells were harvested and resuspended in culture medium with 2% FBS and without Zeocin, then were passed through a 40 μm filter. Cells were added at 20000 cells in a 5 μL/well to a 384-well white small volume cell culture plate (Greiner VWR, Radnor, PA) which contained 50 nL/well of test compound serially diluted at a selected concentration range in DMSO. 5 μL/well of prepared 2× Stimulation Buffer2 was then added to plates and was incubated at 37° C. with 5% CO2 for 1 h. 5 μL/well of agonist Cortistatin 14 (Bio-TechneR&D Systems, Minneapolis, MN) in 1× Stimulation Buffer2, for a 1 μM final concentration, was then added to plates and incubated at 37° C. with 5% CO2 for 1 h. 6 μL/well of 1:20 diluted Detection Reagent Mix (d2 and Cryptate) was added to the plates and incubated for 1 h in the dark. Plates were read on the PHERAstar microplate reader (BMG Labtech Cary, NC) to determine the HTRF ratio of the acceptor and donor emission signals. The IP1 concentrations were calculated from a standard curve following the IP-One GQ kit instructions. Wells with DMSO only and wells with high concentration of reference antagonist were used as controls for normalization. Compound IC50 curves were globally fitted with 3- or 4-parameter Hill equation in a Genedata Screener (Genedata Basel, Switzerland).
(In TR-FRET formats the signal depends on donor and acceptor labels being close together.)
`CC(C)(O)CNC1CC(CNc2cc(C(F)(F)F)nc3cc(C(F)(F)F)nn23)(c2ccc(F)cc2)C1` (centres unmarked) [Example 73, 1-((3-(((2,5-Bis(trifluoromethyl)pyrazolo[1,5-a]pyrimidin-7-yl)amino)methyl)-3-(4-fluorophenyl)cyclobutyl)amino)-2-methylpropan-2-ol] gave an IC50 of 0.1 to 100 nM.
Regarding `O=C(N[C@H]1CC[C@H](O)CC1)N1CC(CNc2cc(C3CC3)nc3cc(C(F)(F)F)nn23)(c2ccc(F)cc2)C1` [Example 69, 3-(((5-Cyclopropyl-2-(trifluoromethyl)pyrazolo[1,5-a]pyrimidin-7-yl)amino)methyl)-3-(4-fluorophenyl)-N-((1r,4r)-4-hydroxycyclohexyl)azetidine-1-carboxamide], the IC50 is 0.1 to 100 nM.
`O=C(N[C@@H]1CC[C@@H](O)C1)N1CC(CNc2cc(C(F)(F)F)nc3cc(C(F)(F)F)nn23)(c2ccc(F)cc2)C1` [Example 53, 3-(((2,5-Bis(trifluoromethyl)pyrazolo[1,5-a]pyrimidin-7-yl)amino)methyl)-3-(4-fluorophenyl)-N-((1R,3R)-3-hydroxycyclopentyl)azetidine-1-carboxamide] came in with a half-maximal inhibitory concentration (IC50) of 0.1 to 100 nM.
Compound `NC(=O)N1CCC(CNc2cc(Cl)nc3nc(C(F)(F)F)cn23)(c2ccccc2)CC1` [Example 1, 4-(((7-Chloro-2-(trifluoromethyl)imidazo[1,2-a]pyrimidin-5-yl)amino)methyl)-4-phenylpiperidine-1-carboxamide] showed an IC50 of 100 to 1000 nM.
Consider `NC(=O)N1CCC(CNc2nccc3nc(C(F)(F)F)cn23)(c2ccccc2)CC1` [Example 2, 4-Phenyl-4-(((2-(trifluoromethyl)imidazo[1,2-c]pyrimidin-5-yl)amino)methyl)piperidine-1-carboxamide], for which the concentration for half-maximal inhibition (IC50) is 100 to 1000 nM.

The values are drawn from patent publication US20250084087A1, “BICYCLIC HETEROCYCLES AS MRGPRX2 ANTAGONISTS” (Incyte Corporation, priority 2023, published 2025).
